Test [1] concerns the target T1, Human KRAS G12V (Homo sapiens, UniProt P01116, G12V).
T1 construct: purchased PerkinElmer
Briefly: KRAS-G12V/GTP binding assay (HTRF kit). To be noted: 25° C., 1 h. The protocol:
Test Example 2: KRAS G12V Binding Assay
In this method, the inhibitory effects of the compounds on the binding of KRAS G12V to GTP were assayed by a homogeneous time-resolved fluorescence (HTRF) technique using a KRAS-G12V/GTP binding assay kit (PerkinElmer).
The experimental procedures were as follows (refer to the kit instructions for detailed test methods): the compounds of the present disclosure were each firstly dissolved in DMSO at a concentration of 20 mM, and then diluted in an equal gradient with a buffer in the kit, so that the final concentrations of the test compounds in the reaction system were in a range of 0.02-5000 nM, and the final concentration of DMSO was 0.5%. 5 μL of each compound was incubated with 5 μL of 1× Human KRAS G12V 6His-tagged (PerkinElmer), 5 µL of 1×6His Eu Cryptate Antibody (PerkinElmer), and 5 μL of 1×GTP Red reagent (PerkinElmer) in a 384-well plate (Greiner) at 25° C. for 1 h. After the incubation was completed, the fluorescence intensity of each well was measured at the excitation wavelength of 337 nm and the emission wavelengths of 620 nm and 665 nm with an EnVision microplate reader (PerkinElmer) in the HTRF mode, and Ratio values were calculated using the formula: Ratio=(665 nm/620 nm)×10^4. The inhibition rates of the compounds at each concentration were calculated by comparing the fluorescence intensity ratio with that of the control group. Then non-linear curve fittings for logarithmic concentration-inhibition rate were performed using the GraphPad Prism 8 analysis software, and the IC50 values of the compounds were obtained (Table 3).
Background: In TR-FRET formats the signal depends on donor and acceptor labels being close together.

Test [2] has as its target T2, KRAS G12V protein in SW900 cells (Homo sapiens, UniProt P01116, G12V).
T2 construct: endogenous in cells; host or cells: SW900
Briefly: KRAS degradation assay (Western Blot) in SW900 cells. The conditions noted are these: 24 h. The format is cell-based. An outline of the steps:
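Degradation of KRAS measured by Western blot after 24 h exposure to compound (0.03–3000 nM final). Values are DC50 and Dmax.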

The subject of test [3] is KRAS G12V mutant human lung squamous carcinoma cell SW900. Briefly: 3D cell proliferation inhibition assay, SW900. The conditions noted are these: SW900, 168 h, 3D culture, 7 days, CTG. The format is cell-based.
Test [4] deals with KRAS WT human gastric cancer cell MKN1. Briefly: 3D cell proliferation inhibition assay, MKN1. The format is cell-based. The conditions noted are these: MKN-1, 168 h, 3D culture, 7 days, CTG. The gist of the method: (§1)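 Seven-day 3D growth at 37 °C in low-adsorption wells, 5×10^2 cells/well except MKN1 (1×10^3), final compound range 10000–0.026 nM in 0.2% DMSO. CTG luminescence read-out; percent inhibition set against DMSO and medium-only wells, IC50 by curve fitting.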

Test [5] has as its system KRAS G12D mutant human metastatic pancreatic cancer cell AsPc-1. Briefly: 3D cell proliferation inhibition assay, AsPc-1. The test is classed as cell-based. To be noted: ASPC1, 168 h, 3D culture, 7 days, CTG. An outline of the steps:
as §1

For test [6], the system named is KRAS G12V mutant human colorectal cancer cell SW620. Briefly: 3D cell proliferation inhibition assay, SW620. The test is classed as cell-based. The conditions noted are these: SW-620, 168 h, 3D culture, 7 days, CTG. The gist of the method:
as §1

Test [7] relates to KRAS-G12D mutant cells. To be noted: background, J. Med. Chem. 2022, 65, 3923-3942; cited from earlier work.

Molecules are shown by their SMILES.

For orientation: IC50 means the concentration that inhibits the measured activity by half. A higher IC50 goes with weaker potency. The term DC50 denotes the concentration giving 50% degradation. High values mean degradation only at high concentration, low ones degradation at low concentration. In general, Dmax refers to the largest share of the target that was removed. Read a high Dmax as deep degradation.

T2 sequence (P01116 1-188 isoform P01116-2 G12V): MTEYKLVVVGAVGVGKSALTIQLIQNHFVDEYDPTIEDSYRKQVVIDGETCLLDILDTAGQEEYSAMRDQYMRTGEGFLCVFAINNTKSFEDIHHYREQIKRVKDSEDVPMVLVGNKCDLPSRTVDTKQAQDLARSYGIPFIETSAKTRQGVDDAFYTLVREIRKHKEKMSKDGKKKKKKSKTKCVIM
T1 sequence (P01116 1-188 isoform P01116-2 G12V): as above

With `C#Cc1c(F)ccc2cc(O)cc(-c3ncc4c(N5CCC[C@@](C)(O)C5)nc(OCC56CC(CN7CCN(CC8CCC9(CC8)CCN(C(=O)c8ccc(C)c(N%10CCC(=O)NC%10=O)c8)CC9)CC7)(C5)C6)nc4c3F)c12` [Example 14, (R)-1-(5-(9-((4-((3-(((7-(8-ethynyl-7-fluoro-3-hydroxynaphthalen-1-yl)-8-fluoro-4-(3-hydroxy-3-methylpiperidin-1-yl)pyrido[4,3-d]pyrimidin-2-yl)oxy)methyl)bicyclo[1.1.1]pent-1-yl)methyl)piperazin-1-yl)methyl)-3-azaspiro[5.5]undecane-3-carbonyl)-2-methylphenyl)dihydropyrimidine-2,4(1H,3H)-dione], the IC50 in test [1] was not above 500 nM. In test [2], this compound returned a DC50 not above 50 nM and a Dmax of 50 to 80%.
In test [1], `C#Cc1c(F)ccc2cc(O)cc(-c3ncc4c(N5CCC[C@@](C)(O)C5)nc(OCC5(CN6CCN(C(=O)c7ccc(Cl)c(N8CCC(=O)NC8=O)c7)CC6)CC5)nc4c3F)c12` [Example 15, (R)-1-(2-chloro-5-(4-((1-(((7-(8-ethynyl-7-fluoro-3-hydroxynaphthalen-1-yl)-8-fluoro-4-(3-hydroxy-3-methylpiperidin-1-yl)pyrido[4,3-d]pyrimidin-2-yl)oxy)methyl)cyclopropyl)methyl)piperazine-1-carbonyl)phenyl)dihydropyrimidine-2,4(1H,3H)-dione] yielded a half-inhibitory concentration (IC50) not above 500 nM.
As to `C#Cc1c(F)ccc2cc(O)cc(-c3ncc4c(N5CCC[C@@](C)(O)C5)nc(OCC5(CN6CCC7(CC6)CCN(C(=O)c6ccc(Cl)c(N8CCC(=O)NC8=O)c6)CC7)CC5)nc4c3F)c12` [Example 16, (R)-1-(2-chloro-5-(9-((1-(((7-(8-ethynyl-7-fluoro-3-hydroxynaphthalen-1-yl)-8-fluoro-4-(3-hydroxy-3-methylpiperidin-1-yl)pyrido[4,3-d]pyrimidin-2-yl)oxy)methyl)cyclopropyl)methyl)-3,9-diazaspiro[5.5]undecane-3-carbonyl)phenyl)dihydropyrimidine-2,4(1H,3H)-dione], the IC50 in test [1] is not above 500 nM.
As to `C#Cc1cccc2cc(O)cc(-c3ncc4c(N5CCC[C@@](C)(O)C5)nc(OCC5(CN6CCN(CC7CCC8(CC7)CCN(C(=O)c7ccc(OC)c(N9CCC(=O)NC9=O)c7)CC8)CC6)CC5)nc4c3F)c12` [Example 29, (R)-1-(5-(9-((4-((1-(((7-(8-ethynyl-3-hydroxynaphthalen-1-yl)-8-fluoro-4-(3-hydroxy-3-methylpiperidin-1-yl)pyrido[4,3-d]pyrimidin-2-yl)oxy)methyl)cyclopropyl)methyl)piperazin-1-yl)methyl)-3-azaspiro[5.5]undecane-3-carbonyl)-2-methoxyphenyl)dihydropyrimidine-2,4(1H,3H)-dione], the concentration for half-maximal inhibition (IC50) in test [3] is not above 50 nM; in test [1], not above 500 nM; in test [4] it was not above 50 nM; in test [5], not above 50 nM; in test [6], 4.46 nM. This compound also had a DC50 in test [2] not above 50 nM. The compound further came in with a Dmax in test [2] of 80 to 100%.
On to `C#Cc1c(F)ccc2cc(O)cc(-c3ncc4c(N(C)C5CC5)nc(OCC5(CN6CCN(CC7CCC8(CC7)CCN(C(=O)c7ccc(OC)c(N9CCC(=O)NC9=O)c7)CC8)CC6)CC5)nc4c3F)c12` [Example 30, 1-(5-(9-((4-((1-(((4-(cyclopropyl(methyl)amino)-7-(8-ethynyl-7-fluoro-3-hydroxynaphthalen-1-yl)-8-fluoropyrido[4,3-d]pyrimidin-2-yl)oxy)methyl)cyclopropyl)methyl)piperazin-1-yl)methyl)-3-azaspiroundecane-3-carbonyl)-2-methoxyphenyl)dihydropyrimidine-2,4(1H,3H)-dione], for which the IC50 in test [1] was in the range of 500 to 1000 nM. In test [2], this compound registered a DC50 not above 50 nM and a Dmax of 50 to 80%.
`Cc1ccc(C(=O)N2CCC3(CCC(CN4CCN(CC5(COc6nc(N7CCC[C@@](C)(O)C7)c7cnc(-c8cc(O)cc(Cl)c8C8CC8)c(F)c7n6)CC5)CC4)CC3)CC2)cc1N1CCC(=O)NC1=O` [Example 40, (R)-1-(5-(9-((4-((1-(((7-(3-chloro-2-cyclopropyl-5-hydroxyphenyl)-8-fluoro-4-(3-hydroxy-3-methylpiperidin-1-yl)pyrido[4,3-d]pyrimidin-2-yl)oxy)methyl)cyclopropyl)methyl)piperazin-1-yl)methyl)-3-azaspiro[5.5]undecane-3-carbonyl)-2-methylphenyl)dihydropyrimidine-2,4(1H,3H)-dione] registered an IC50 in test [1] of 500 to 1000 nM. Moreover, in test [2], the half-maximal degradation concentration (DC50) was not above 50 nM and the greatest degradation seen (Dmax) fell in the range of 80 to 100%.
As to `C#Cc1c(F)ccc2cc(O)cc(-c3ncc4c(N5CC6CCC(C5)N6)nc(OC[C@@]56CCCN5C[C@H](F)C6)nc4c3F)c12` [MRTX1133], the “specificity for KRAS-G12D mutant cells over wild-type tumor cells” value in test [7] is given as “more than 1000 times”.

(Values after patent US20260167622A1, “PAN-KRAS DEGRADING AGENT, AND PREPARATION METHOD THEREFOR AND USE THEREOF” (LEADINGTAC PHARMACEUTICAL (SHAOXING) CO., LTD., priority 2022, published 2026).)
